What was measured:
[1] = system: morningglory; assay: Test B pre-/postemergence herbicide test; assay type: in vivo, Ipomoea coccinea; settings: for Morningglory plant response rating (0 to 100 scale): 0 = no effect, 100 = complete control; for Morningglory plant response rating (0 to 100 scale) / Plant response rating, Morningglory: preemergence; for Plant response rating, Morningglory: visual rating 0-100, 0 no effect, 100 complete control; for Morningglory plant response rating: postemergence, visual rating, scale 0 (no effect) to 100 (complete control)
Outline: (§1)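 Response was scored visually 13 to 15 days after treatment against untreated greenhouse controls, 0 meaning no effect and 100 complete control. Formulations (solvent mixture plus surfactant) went onto soil after planting, onto foliage of 1- to 4-leaf plants, and onto 2-leaf plants in a flooded paddy set including rice and barnyardgrass.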

[2] = system: corn; assay: Test B pre-/postemergence herbicide test; assay type: in vivo, Zea mays; settings: for Corn plant response rating (0 to 100 scale): 0 = no effect, 100 = complete control; for Corn plant response rating (0 to 100 scale) / Plant response rating, Corn: preemergence; for Plant response rating, Corn: visual rating 0-100, 0 no effect, 100 complete control; for Corn plant response rating: postemergence, visual rating, scale 0 (no effect) to 100 (complete control)
Outline: as §1

[3] = system: velvetleaf; assay: Test B pre-/postemergence herbicide test; assay type: in vivo, Abutilon theophrasti; settings: for Velvetleaf plant response rating (0 to 100 scale): 0 = no effect, 100 = complete control; for Velvetleaf plant response rating (0 to 100 scale) / Plant response rating, Velvetleaf: preemergence; for Plant response rating, Velvetleaf: visual rating 0-100, 0 no effect, 100 complete control; for Velvetleaf plant response rating: postemergence, visual rating, scale 0 (no effect) to 100 (complete control)
Outline: as §1

[4] = system: giant foxtail; assay: Test B pre-/postemergence herbicide test; assay type: in vivo, Setaria faberi; settings: for Foxtail, Giant plant response rating (0 to 100 scale): 0 = no effect, 100 = complete control; for Foxtail, Giant plant response rating (0 to 100 scale) / Plant response rating, Foxtail, Giant: preemergence; for Plant response rating, Foxtail, Giant: visual rating 0-100, 0 no effect, 100 complete control; for Foxtail, Giant plant response rating: postemergence, visual rating, scale 0 (no effect) to 100 (complete control)
Outline: as §1

[5] = system: wild oat; assay: Test B postemergence herbicide test; assay type: in vivo, Avena fatua; settings: postemergence, visual rating, scale 0 (no effect) to 100 (complete control)
Outline: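 Formulated test chemicals went onto postemergence plants measuring 2 to 18 cm, at one to four leaves. For the paddy assay, species had reached two leaves. Scoring took place 13–15 days later by eye, relative to untreated plants, using 0 for no effect up to 100 for full control.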

[6] = system: small flower umbrella sedge; assay: Test B flooded paddy test; assay type: in vivo, Cyperus difformis; settings: 1000 g ai/ha, visual rating, scale 0 to 100 (0 no effect, 100 complete control), 13 to 15 days
Outline: (§2)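 Visual control ratings, 0–100 versus untreated controls, taken after 13 to 15 days in the greenhouse. Blackgrass received a postemergence spray at the 1- to 4-leaf stage (2–18 cm); ducksalad, umbrella sedge and barnyardgrass were flooded-paddy treated at 2 leaves.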

[7] = system: large crabgrass; assay: Test B pre-/postemergence herbicide test; assay type: in vivo, Digitaria sanguinalis; settings: for Crabgrass, Large plant response rating (0 to 100 scale): 0 = no effect, 100 = complete control; for Crabgrass, Large plant response rating (0 to 100 scale) / Plant response rating, Crabgrass, Large: preemergence; for Plant response rating, Crabgrass, Large: visual rating 0-100, 0 no effect, 100 complete control; for Crabgrass, Large plant response rating: postemergence, visual rating, scale 0 (no effect) to 100 (complete control)
Outline: as §1

[8] = system: Surinam grass; assay: Test B pre-/postemergence herbicide test; assay type: in vivo, Urochloa decumbens; settings: for Surinam Grass plant response rating (0 to 100 scale): 0 = no effect, 100 = complete control; for Surinam Grass plant response rating (0 to 100 scale) / Plant response rating, Surinam Grass: preemergence; for Plant response rating, Surinam Grass: visual rating 0-100, 0 no effect, 100 complete control; for Surinam Grass plant response rating: postemergence, visual rating, scale 0 (no effect) to 100 (complete control)
Outline: as §1

[9] = system: ducksalad; assay: Test B flooded paddy test; assay type: in vivo, Heteranthera limosa; settings: 1000 g ai/ha, visual rating, scale 0 to 100 (0 no effect, 100 complete control), 13 to 15 days
Outline: as §2

[10] = system: rice; assay: Test B flooded paddy test; assay type: in vivo, Oryza sativa; settings: 1000 g ai/ha, visual rating, scale 0 to 100 (0 no effect, 100 complete control), 13 to 15 days
Outline: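 Postemergence plants were sprayed with formulated test chemicals at 2 to 18 cm height (1- to 4-leaf stage); paddy species were grown to the 2-leaf stage. After 13 to 15 days in a greenhouse, injury was rated visually against untreated controls on a 0–100 scale (0 = no effect, 100 = complete control).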

[11] = system: blackgrass; assay: Test B postemergence herbicide test; assay type: in vivo, Alopecurus myosuroides; settings: postemergence, visual rating, scale 0 (no effect) to 100 (complete control)
Outline: as §2

[12] = system: cocklebur; assay: Test B pre-/postemergence herbicide test; assay type: in vivo, Xanthium strumarium; settings: for Cocklebur plant response rating (0 to 100 scale): 0 = no effect, 100 = complete control; for Cocklebur plant response rating (0 to 100 scale) / Plant response rating, Cocklebur: preemergence; for Plant response rating, Cocklebur: visual rating 0-100, 0 no effect, 100 complete control; for Cocklebur plant response rating: postemergence, visual rating, scale 0 (no effect) to 100 (complete control)
Outline: as §1

[13] = system: lambsquarters; assay: Test B pre-/postemergence herbicide test; assay type: in vivo, Chenopodium album; settings: for Lambsquarters plant response rating (0 to 100 scale): 0 = no effect, 100 = complete control; for Lambsquarters plant response rating (0 to 100 scale) / Plant response rating, Lambsquarters: preemergence; for Plant response rating, Lambsquarters: visual rating 0-100, 0 no effect, 100 complete control; for Lambsquarters plant response rating: postemergence, visual rating, scale 0 (no effect) to 100 (complete control)
Outline: as §1

[14] = system: barnyardgrass; assay: Test B pre-/postemergence herbicide test; assay type: in vivo, Echinochloa crus-galli; settings: for Barnyardgrass plant response rating (0 to 100 scale): 0 = no effect, 100 = complete control; for Barnyardgrass plant response rating (0 to 100 scale) / Plant response rating, Barnyardgrass: preemergence; for Plant response rating, Barnyardgrass: visual rating 0-100, 0 no effect, 100 complete control; for Barnyardgrass plant response rating: postemergence, visual rating, scale 0 (no effect) to 100 (complete control)
Outline: as §1

[15] = system: pigweed; assay: Test B pre-/postemergence herbicide test; assay type: in vivo, Amaranthus retroflexus; settings: for Pigweed plant response rating (0 to 100 scale): 0 = no effect, 100 = complete control; for Pigweed plant response rating (0 to 100 scale) / Plant response rating, Pigweed: preemergence; for Plant response rating, Pigweed: visual rating 0-100, 0 no effect, 100 complete control; for Pigweed plant response rating: postemergence, visual rating, scale 0 (no effect) to 100 (complete control)
Outline: as §1

SMILES: CCNC(=O)c1ccc(F)c(NC(=O)c2cn(C(C)(C)C)nc2CC)c1 [Compound 193]
- Morningglory plant response rating (0 to 100 scale) ([1]; 125 g ai/ha): 40
- Plant response rating, Morningglory ([1]; 500 g ai/ha): 100
- Morningglory plant response rating ([1]; 125 g ai/ha): 30
- Morningglory plant response rating ([1]; 500 g ai/ha): 70
- Corn plant response rating (0 to 100 scale) ([2]; 125 g ai/ha): 70
- Plant response rating, Corn ([2]; 500 g ai/ha): 100
- Corn plant response rating ([2]; 125 g ai/ha): 10
- Corn plant response rating ([2]; 500 g ai/ha): 20
- Velvetleaf plant response rating (0 to 100 scale) ([3]; 125 g ai/ha): 70
- Plant response rating, Velvetleaf ([3]; 500 g ai/ha): 100
- Velvetleaf plant response rating ([3]; 125 g ai/ha): 50
- Velvetleaf plant response rating ([3]; 500 g ai/ha): 70
- Foxtail, Giant plant response rating (0 to 100 scale) ([4]; 125 g ai/ha): 100
- Plant response rating, Foxtail, Giant ([4]; 500 g ai/ha): 100
- Foxtail, Giant plant response rating ([4]; 125 g ai/ha): 10
- Foxtail, Giant plant response rating ([4]; 500 g ai/ha): 20
- Oat, Wild plant response rating ([5]; 125 g ai/ha): 0
- Oat, Wild plant response rating ([5]; 500 g ai/ha): 0
- Sedge, Umbrella plant response rating [6]: 80
- Crabgrass, Large plant response rating (0 to 100 scale) ([7]; 125 g ai/ha): 100
- Plant response rating, Crabgrass, Large ([7]; 500 g ai/ha): 100
- Crabgrass, Large plant response rating ([7]; 125 g ai/ha): 10
- Crabgrass, Large plant response rating ([7]; 500 g ai/ha): 10
- Surinam Grass plant response rating (0 to 100 scale) ([8]; 125 g ai/ha): 80
- Plant response rating, Surinam Grass ([8]; 500 g ai/ha): 100
- Surinam Grass plant response rating ([8]; 125 g ai/ha): 10
- Surinam Grass plant response rating ([8]; 500 g ai/ha): 10
- Ducksalad plant response rating [9]: 90
- Rice plant response rating [10]: 80
- Blackgrass plant response rating ([11]; 125 g ai/ha): 0
- Blackgrass plant response rating ([11]; 500 g ai/ha): 20
- Cocklebur plant response rating (0 to 100 scale) ([12]; 125 g ai/ha): 10
- Plant response rating, Cocklebur ([12]; 500 g ai/ha): 70
- Cocklebur plant response rating ([12]; 125 g ai/ha): 20
- Cocklebur plant response rating ([12]; 500 g ai/ha): 70
- Lambsquarters plant response rating (0 to 100 scale) ([13]; 125 g ai/ha): 100
- Plant response rating, Lambsquarters ([13]; 500 g ai/ha): 100
- Lambsquarters plant response rating ([13]; 125 g ai/ha): 90
- Lambsquarters plant response rating ([13]; 500 g ai/ha): 90
- Barnyardgrass plant response rating (0 to 100 scale) ([14]; 125 g ai/ha): 90
- Plant response rating, Barnyardgrass ([14]; 500 g ai/ha): 100
- Barnyardgrass plant response rating ([14]; 125 g ai/ha): 0
- Barnyardgrass plant response rating ([14]; 500 g ai/ha): 10
- Pigweed plant response rating (0 to 100 scale) ([15]; 125 g ai/ha): 100
- Plant response rating, Pigweed ([15]; 500 g ai/ha): 100
- Pigweed plant response rating ([15]; 125 g ai/ha): 20
- Pigweed plant response rating ([15]; 500 g ai/ha): 60

SMILES: CCN(CC)C(=O)c1cccc(NC(=O)c2sc(C(C)(C)C)nc2C)c1 [Compound 199]
- Morningglory plant response rating (0 to 100 scale) ([1]; 125 g ai/ha): 0
- Plant response rating, Morningglory ([1]; 500 g ai/ha): 60
- Morningglory plant response rating ([1]; 125 g ai/ha): 40
- Morningglory plant response rating ([1]; 500 g ai/ha): 60
- Corn plant response rating (0 to 100 scale) ([2]; 125 g ai/ha): 0
- Plant response rating, Corn ([2]; 500 g ai/ha): 10
- Corn plant response rating ([2]; 125 g ai/ha): 10
- Corn plant response rating ([2]; 500 g ai/ha): 20
- Velvetleaf plant response rating (0 to 100 scale) ([3]; 125 g ai/ha): 0
- Plant response rating, Velvetleaf ([3]; 500 g ai/ha): 60
- Velvetleaf plant response rating ([3]; 125 g ai/ha): 20
- Velvetleaf plant response rating ([3]; 500 g ai/ha): 30
- Foxtail, Giant plant response rating (0 to 100 scale) ([4]; 125 g ai/ha): 10
- Plant response rating, Foxtail, Giant ([4]; 500 g ai/ha): 100
- Foxtail, Giant plant response rating ([4]; 125 g ai/ha): 10
- Foxtail, Giant plant response rating ([4]; 500 g ai/ha): 10
- Oat, Wild plant response rating ([5]; 125 g ai/ha): 10
- Oat, Wild plant response rating ([5]; 500 g ai/ha): 10
- Sedge, Umbrella plant response rating [6]: 10
- Crabgrass, Large plant response rating (0 to 100 scale) ([7]; 125 g ai/ha): 90
- Plant response rating, Crabgrass, Large ([7]; 500 g ai/ha): 100
- Crabgrass, Large plant response rating ([7]; 125 g ai/ha): 10
- Crabgrass, Large plant response rating ([7]; 500 g ai/ha): 10
- Surinam Grass plant response rating (0 to 100 scale) ([8]; 125 g ai/ha): 10
- Plant response rating, Surinam Grass ([8]; 500 g ai/ha): 70
- Surinam Grass plant response rating ([8]; 125 g ai/ha): 10
- Surinam Grass plant response rating ([8]; 500 g ai/ha): 20
- Ducksalad plant response rating [9]: 0
- Rice plant response rating [10]: 20
- Blackgrass plant response rating ([11]; 125 g ai/ha): 0
- Blackgrass plant response rating ([11]; 500 g ai/ha): 10
- Cocklebur plant response rating (0 to 100 scale) ([12]; 125 g ai/ha): 0
- Plant response rating, Cocklebur ([12]; 500 g ai/ha): 0
- Cocklebur plant response rating ([12]; 125 g ai/ha): 10
- Cocklebur plant response rating ([12]; 500 g ai/ha): 60
- Lambsquarters plant response rating (0 to 100 scale) ([13]; 125 g ai/ha): 80
- Plant response rating, Lambsquarters ([13]; 500 g ai/ha): 90
- Lambsquarters plant response rating ([13]; 125 g ai/ha): 60
- Lambsquarters plant response rating ([13]; 500 g ai/ha): 70
- Barnyardgrass plant response rating (0 to 100 scale) ([14]; 125 g ai/ha): 20
- Plant response rating, Barnyardgrass ([14]; 500 g ai/ha): 90
- Barnyardgrass plant response rating ([14]; 125 g ai/ha): 0
- Barnyardgrass plant response rating ([14]; 500 g ai/ha): 10
- Pigweed plant response rating (0 to 100 scale) ([15]; 125 g ai/ha): 90
- Plant response rating, Pigweed ([15]; 500 g ai/ha): 100
- Pigweed plant response rating ([15]; 125 g ai/ha): 10
- Pigweed plant response rating ([15]; 500 g ai/ha): 40

From patent US20060069132A1, “Azolecarboxamide herbicides” (priority 2004, published 2006)
